Experimental data reported in article PMC7221086, “Trefoil factors share a lectin activity that defines their role in mucus” (Nature Communications, 2020).
Substitutions are numbered along the chain they refer to. Where no end group is shown, it is not given here.

What was measured:
[1] = system: pMucin; experiment: Mucin agglutination assay; format: biochemical, porcine; conditions: pMucin 0.02% w/v, 405 nm, 25 °C
Method: Mucin agglutination assays were performed at 25 °C on an EnVision 2105 Multimode Plate Reader (PerkinElmer) to monitor transmission at 405 nm over time. The assay was performed in a 96-well plate (Corning, polystyrene flat bottom clear) with 50 µl per well. pMucin concentration was kept consistent at 0.02% w/v and TFF concentration varied (0, 1, 2, 4, 8, 16 or 32 µM). The resulting curves were normalised to percent decrease in signal, averaged over three replicates and plotted using Prism 8 (GraphPad).

[2] = system: pMucinred+GH89 (pMucinred treated with CpGH89); experiment: TFF-mucin ELISA on pMucinred+GH89; format: binding, porcine; conditions: immobilised GH89-treated mucin, Strep-HRP detection
Method: (§1) A 50 mg ml^−1 stock of pMucin was prepared by resuspending porcine gastric mucin type III (Sigma) in PBS + 50 mM EDTA + 0.02% NaN3. This pMucin (1 ml) was dialysed (100 kDa NMWL) against 4 M guanidium hydrochloride (2 × 2.0 l) over 48 h at 4 °C. Precipitate was removed by centrifugation (8000×g, 20 min, 4 °C) and the soluble supernatant dialysed (100 kDa NMWL) against PBS (2 × 2.0 l) over 48 h at 4 °C. Half of this sample was treated with 50 µg ml^−1 CpGH89[29] at 30°C for 16 h. Both mucin samples were reduced with 10 mM DTT (30 min, 50 °C) then alkylated by the addition of 30 mM iodoacetamide (30 min, 50 °C). These samples were dialysed (100 kDa NMWL) against PBS (2 × 2.0 l) over 48 h at 4 °C. The concentration of all three mucin stock solutions were standardised to A280 = 1.5 using PBS. These samples were aliquoted, flash frozen in liquid N2 and stored at −80 °C.
(§2) A solution of pMucin, pMucinred or pMucinred+GH89 (100 µl, 1 µg ml^−1) in 100 mM bicarbonate buffer pH 9.4, was added to each well of a 96-well plate (flat-bottom Nunc MaxiSorp, ThermoFisher) and the plate gently nutated for 2 h at 25 °C. The wells were rinsed four times with 200 µl PBS-T (50 mM NaPi pH 7.4, 150 mM NaCl, 0.2% Tween-20) then blocked for 1 h at 25 °C with blocking buffer (50 mM NaPi pH 7.4, 150 mM NaCl, 5% w/v BSA). The wells were rinsed four times with 200 µl PBS-T then incubated with 100 µl blocking buffer containing TFF (various concentrations) and 1:1000 Strep-HRP (ThermoFisher) for 1 h at 25 °C. The wells were rinsed four times with 200 µl PBS-T then developed by adding 100 µl of TMB-Turbo (ThermoFisher) and incubated for 30 min at 25 °C. The reaction was quenched by the addition of 100 µl of 2 M H2SO4. Absorbance at 450 nm was read within 20 min using an EnVision 2105 Multimode Plate Reader (PerkinElmer). Data was analysed using Prism 8 (GraphPad).

[3] = system: pMucinred (reduced and alkylated pMucin); experiment: TFF-mucin ELISA on pMucinred; format: binding, porcine; conditions: immobilised pMucinred, Strep-HRP detection
Method: as §1, §2

[4] = system: pMucin (porcine gastric mucin); experiment: TFF-mucin ELISA on pMucin; format: binding; conditions: immobilised pMucin, Strep-HRP detection
Method: as §1, §2

[5] = target: T1, mTFF3 (human TFF3, monomeric) (Homo sapiens, UniProt Q07654, C78S); experiment: Isothermal titration calorimetry of glycans against mTFF3; format: binding; conditions: ITC, pH 7.4, 25 °C; TFF3
T1 construct: with an N-terminal PelB signal peptide, no interchain Cys, and a C-terminal His6-tag; PelB signal peptide (N, cleaved yes); His6 (C, cleaved yes); made in house; host or cells: E. coli T7 Express, periplasmic extraction
T1 sequence (Q07654 22-80 C78S): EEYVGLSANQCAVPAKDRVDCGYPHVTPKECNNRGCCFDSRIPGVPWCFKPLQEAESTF
Method: (§3) All TFF and ligand stock solutions were prepared in the same buffer (50 mM HEPES, 50 mM NaCl, pH 7.4) and filtered (0.22 µm) just prior to titration. All control and non-binding ligand experiments were performed as 12 × 3.18 µl injections. For experiments with GlcNAc-α-1,4-Gal (Carbosynth), 25 × 1.58 µl injections were used. All runs were performed at 25 °C in a MicroCal iTC200 (Malvern).
(§4) Supplementary Table 2: Parameters used for ITC and thermodynamic terms determined for
(§5) GlcNAc-α-1,4-Gal binding to the TFFs. Data are presented as mean values ±SD for three
(§6) Protein GlcNAc-α- T n Kd ΔH ΔS -TΔS ΔG
(§7) (30 µM) 1,4-Gal (µM) (℃) (µM) (kcal · mol-1) (cal · mol-1 · K-1) (kcal · mol-1) (kcal · mol-1)

[6] = target: T2, TFF2 (human TFF2) (Homo sapiens, UniProt Q03403, N38Q); experiment: Isothermal titration calorimetry of glycans against TFF2; format: binding; conditions: ITC, pH 7.4, 25 °C; TFF2
T2 construct: with an N-terminal gp67 signal peptide and a C-terminal His10-tag; gp67 signal peptide (N, cleaved yes); made in house; host or cells: Sf21 insect cells (baculovirus), secreted
T2 sequence (Q03403 24-129 N38Q): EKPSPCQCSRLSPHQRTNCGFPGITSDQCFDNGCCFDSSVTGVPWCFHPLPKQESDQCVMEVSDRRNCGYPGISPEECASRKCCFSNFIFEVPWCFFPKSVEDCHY
Method: as §3, §4, §5, §6, §7

[7] = target: T3, mTFF1 (human TFF1, monomeric) (Homo sapiens, UniProt P04155); experiment: Isothermal titration calorimetry of glycans against mTFF1; format: binding; conditions: ITC, pH 7.4, 25 °C; TFF1
T3 construct: PelB signal peptide (N, cleaved yes); His6 (C, cleaved yes); made in house; host or cells: E. coli T7 Express, periplasmic extraction
T3 sequence (P04155 with tags, fused parts or gaps): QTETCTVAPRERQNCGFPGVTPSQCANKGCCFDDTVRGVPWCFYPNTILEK
Method: as §3, §4, §5, §6, §7

[8] = target: reduced and alkylated pMucin; experiment: ELISA; conditions: read off a plot
[9] = target: commercially-available porcine gastric mucin (porcine)

## Dimeric TFF1: dimeric wild-type TFF1 construct used in the pMucin agglutination assay ({Avi‑tag(biotin)}-EAQTETCTVAPRERQNCGFPGVTPSQCANKGCCFDDTVRGVPWCFYPNTIDVPPEEECEF; also: homodimer via interchain disulfide, Cys not given here)
[1]
  lowest concentration inducing dose-dependent increase in light scattering over time: 4 µM

## mTFF1bio: site-selectively biotinylated monomeric TFF1 ({Avi‑tag(biotin)}-EAQTETCTVAPRERQNCGFPGVTPSQCANKGCCFDDTVRGVPWCFYPNTIDVPPEEECEF; also: one free cysteine, interchain disulfide not formed)
[2]
  binding to pMucinred+GH89 by ELISA: no significant binding
[3]
  binding / affinity to pMucinred by ELISA: robust binding
[4]
  binding to pMucin by ELISA: robust binding

## Dimeric TFF3: dimeric wild-type TFF3 construct used in the pMucin agglutination assay ({Avi‑tag(biotin)}-EEYVGLSANQCAVPAKDRVDCGYPHVTPKECNNRGCCFDSRIPGVPWCFKPLQEAECTF; also: homodimer via interchain disulfide, Cys not given here)
[1]
  lowest concentration inducing dose-dependent increase in light scattering over time: 4 µM

## dTFF1bio: biotinylated dimeric TFF1 construct, wild type ({Avi‑tag(biotin)}-EAQTETCTVAPRERQNCGFPGVTPSQCANKGCCFDDTVRGVPWCFYPNTIDVPPEEECEF; also: homodimer via interchain disulfide, Cys not given here)
[2]
  binding to pMucinred+GH89 by ELISA: does not bind

## dTFF3bio-D20A: biotinylated dimeric TFF3 with D20A mutation ({Avi‑tag(biotin)}-EEYVGLSANQCAVPAKDRVACGYPHVTPKECNNRGCCFDSRIPGVPWCFKPLQEAECTF; also: homodimer via interchain disulfide, Cys not given here)
[3]
  binding / affinity to pMucinred by ELISA: barely any detectable affinity

## CC(=O)N[C@H]1[C@@H](Oc2ccc([N+](=O)[O-])cc2)O[C@H](CO)[C@@H](O)[C@@H]1O [4-nitrophenyl α-D-GlcNAc]
[5]
  affinity by ITC: no detectable affinity
[6]
  affinity by ITC: no detectable affinity
[7]
  affinity by ITC: no detectable affinity

## biotinylated dimeric TFF3 (from UniProt Q07654) D20A
[8]; 25 nM TFF, parent: est. 1.2
  response (Abs. @ 450 nm): 0.04
[8]; 1000 nM TFF, parent: est. 1.2
  response (Abs. @ 450 nm): 0.095

## biotinylated dimeric TFF1 (from UniProt P04155) W41A
[8]; 25 nM TFF, parent: est. 1.3
  response (Abs. @ 450 nm): 0.06
[8]; 1000 nM TFF, parent: est. 1.3
  response (Abs. @ 450 nm): 0.045

## CC(=O)N[C@H]1[C@@H](OCc2ccccc2)O[C@H](CO)[C@@H](O)[C@@H]1O [benzyl α-D-GlcNAc]
[5]
  affinity by ITC: no detectable affinity
[6]
  affinity by ITC: no detectable affinity
[7]
  affinity by ITC: no detectable affinity

## mTFF3bio: site-selectively biotinylated monomeric TFF3 ({Avi‑tag(biotin)}-EEYVGLSANQCAVPAKDRVDCGYPHVTPKECNNRGCCFDSRIPGVPWCFKPLQEAECTF; also: one free cysteine, interchain disulfide not formed)
[2]
  binding to pMucinred+GH89 by ELISA: no significant binding
[3]
  binding / affinity to pMucinred by ELISA: robust binding
[4]
  binding to pMucin by ELISA: robust binding

## OC[C@H]1O[C@H](O[C@H]2[C@H](O)[C@@H](O)[C@H](O)O[C@@H]2CO)[C@H](O)[C@@H](O)[C@@H]1O [maltose]
[5]
  affinity by ITC: failed to show any affinity
[6]
  affinity by ITC: failed to show any affinity
[7]
  affinity by ITC: failed to show any affinity

## biotinylated dimeric TFF3 (from UniProt Q07654) W47A
[8]; 25 nM TFF, parent: est. 1.2
  response (Abs. @ 450 nm): 0.035
[8]; 1000 nM TFF, parent: est. 1.2
  response (Abs. @ 450 nm): 0.04

## CC(=O)N[C@H]1C(O)O[C@H](CO)[C@@H](O)[C@@H]1O (stereo partly drawn) [D-GlcNAc]
[5]
  affinity by ITC: no detectable affinity
[6]
  affinity by ITC: no detectable affinity
[7]
  affinity by ITC: no detectable affinity

## biotinylated dimeric TFF1 (from UniProt P04155) N14A
[8]; 25 nM TFF, parent: est. 1.3
  response (Abs. @ 450 nm): 0.68
[8]; 1000 nM TFF, parent: est. 1.3
  response (Abs. @ 450 nm): 1

## dTFF3bio-W47A: biotinylated dimeric TFF3 with W47A mutation ({Avi‑tag(biotin)}-EEYVGLSANQCAVPAKDRVDCGYPHVTPKECNNRGCCFDSRIPGVPACFKPLQEAECTF; also: homodimer via interchain disulfide, Cys not given here)
[3]
  binding / affinity to pMucinred by ELISA: completely inactive

## OC[C@H]1O[C@H](O[C@@H]2[C@H](O)[C@@H](O)C(O)O[C@@H]2CO)[C@H](O)[C@@H](O)[C@H]1O (stereo partly drawn) [Gal-α-1,4-Gal]
[5]
  affinity by ITC: failed to show any affinity
[6]
  affinity by ITC: failed to show any affinity
[7]
  affinity by ITC: failed to show any affinity

B1: biotinylated dimeric TFF3 (natural protein)
chain: T1 sequence (Q07654 22-80 C78S) with S57C
modifications: also: dimer via interchain disulfide, biotin on Avi-tag (BirA), tag not in chain
[9]
  EC50 of the glycoside hydrolase CpGH89 (0-512 nM, 20 h, 30 °C) for liberating bound dTFF3bio from immobilised pMucin, read by ELISA: 0.4 nM

B2: biotinylated dimeric TFF1 (natural protein)
chain: EAQTETCTVAPRERQNCGFPGVTPSQCANKGCCFDDTVRGVPWCFYPNTIDVPPEEECEF
modifications: also: dimer via interchain disulfide, biotin on Avi-tag (BirA), tag not in chain
[9]
  EC50 of the glycoside hydrolase CpGH89 (0-512 nM, 20 h, 30 °C) for liberating bound dTFF1bio from immobilised pMucin, read by ELISA: 0.8 nM

B3: TFF2bio: biotinylated TFF2, positive control (protein)
chain: T2 sequence (Q03403 24-129 N38Q) with Q15N
modifications: biotin, non-specific (EZ-Link NHS-PEG4-biotin); left off: His10, C-terminal, state not stated
notes: biotinylated TFF2, positive control
[2]
  binding to pMucinred+GH89 by ELISA: no significant binding
[3]
  binding / affinity to pMucinred by ELISA: robust binding
[4]
  binding to pMucin by ELISA: robust binding
